Test results published in patent US20260130395A1, “Water Dispersible Botanical Compositions” (Aquila Black Limited, priority 2021, published 2026).

Experiment: Stability of cannabinoid compounds and Vitamin E components in Beverage 2 (AB Red) by LCMSMS
Format: physicochemical

## Cc1c(C)c2c(c(C)c1OC(=O)CCC(=O)O)CC[C@@](C)(CCC[C@H](C)CCC[C@H](C)CCCC(C)C)O2 [α-Tocopheryl succinate]
Stored at 8° C., 0 days
  Stability of Vitamin Es in AB Red: 12.5 µg/mL
Stored at 8° C., 1 days
  Stability of Vitamin Es in AB Red: 11.7 µg/mL
Stored at 8° C., 2 days
  Stability of Vitamin Es in AB Red: 11.7 µg/mL
Stored at 8° C., 3 days
  Stability of Vitamin Es in AB Red: 11.7 µg/mL
Stored at 8° C., 5 days
  Stability of Vitamin Es in AB Red: 11.5 µg/mL
Stored at 8° C., 8 days
  Stability of Vitamin Es in AB Red: 12.6 µg/mL
Stored at 8° C., 9 days
  Stability of Vitamin Es in AB Red: 11.8 µg/mL
Stored at 8° C., 10 days
  Stability of Vitamin Es in AB Red: 12.6 µg/mL
Stored at 8° C., 11 days
  Stability of Vitamin Es in AB Red: 12.1 µg/mL
Stored at 8° C., 12 days
  Stability of Vitamin Es in AB Red: 12.7 µg/mL
Stored at 8° C., 15 days
  Stability of Vitamin Es in AB Red: 12.5 µg/mL
Stored at 8° C., 16 days
  Stability of Vitamin Es in AB Red: 11.5 µg/mL
Stored at 8° C., 17 days
  Stability of Vitamin Es in AB Red: 12.4 µg/mL
Stored at 8° C., 18 days
  Stability of Vitamin Es in AB Red: 11.9 µg/mL
Stored at 8° C., 19 days
  Stability of Vitamin Es in AB Red: 11.7 µg/mL
Stored at 8° C., 22 days
  Stability of Vitamin Es in AB Red: 11.9 µg/mL
Stored at 8° C., 23 days
  Stability of Vitamin Es in AB Red: 12.0 µg/mL
Stored at 8° C., 24 days
  Stability of Vitamin Es in AB Red: 12.2 µg/mL
Stored at 8° C., 25 days
  Stability of Vitamin Es in AB Red: 12.0 µg/mL
Stored at 8° C., 26 days
  Stability of Vitamin Es in AB Red: 12.5 µg/mL
Stored at 8° C., 29 days
  Stability of Vitamin Es in AB Red: 11.6 µg/mL
Stored at 8° C., 30 days
  Stability of Vitamin Es in AB Red: 12.4 µg/mL
Stored at 8° C., 60 days
  Stability of Vitamin Es in AB Red: 11.4 µg/mL
Stored at 8° C., 90 days
  Stability of Vitamin Es in AB Red: 11.5 µg/mL
Stored at 8° C., 120 days
  Stability of Vitamin Es in AB Red: 12.2 µg/mL
Stored at 8° C., 150 days
  Stability of Vitamin Es in AB Red: 11.5 µg/mL
Stored at 8° C., 180 days
  Stability of Vitamin Es in AB Red: 11.4 µg/mL
Stored at 8° C., 210 days
  Stability of Vitamin Es in AB Red: 11.4 µg/mL
Stored at 8° C., 240 days
  Stability of Vitamin Es in AB Red: 11.6 µg/mL
Stored at 8° C., 270 days
  Stability of Vitamin Es in AB Red: 11.5 µg/mL
Stored at 8° C., 300 days
  Stability of Vitamin Es in AB Red: 11.2 µg/mL
Stored at 8° C., 330 days
  Stability of Vitamin Es in AB Red: 11.7 µg/mL
Stored at 8° C., 360 days
  Stability of Vitamin Es in AB Red: 11.3 µg/mL
Stored at 8° C., 390 days
  Stability of Vitamin Es in AB Red: 11.2 µg/mL
Stored at 8° C., 420 days
  Stability of Vitamin Es in AB Red: 11.0 µg/mL
Stored at 8° C., 450 days
  Stability of Vitamin Es in AB Red: 11.2 µg/mL
Stored at 8° C., 480 days
  Stability of Vitamin Es in AB Red: 10.9 µg/mL
Stored at 8° C., 510 days
  Stability of Vitamin Es in AB Red: 10.8 µg/mL
Stored at 8° C., 540 days
  Stability of Vitamin Es in AB Red: 10.9 µg/mL
Stored at 8° C., 570 days
  Stability of Vitamin Es in AB Red: 10.6 µg/mL
Stored at 21-25° C., 0 days
  Stability of Vitamin Es in AB Red: 12.5 µg/mL
Stored at 21-25° C., 1 days
  Stability of Vitamin Es in AB Red: 12.5 µg/mL
Stored at 21-25° C., 2 days
  Stability of Vitamin Es in AB Red: 12.0 µg/mL
Stored at 21-25° C., 3 days
  Stability of Vitamin Es in AB Red: 11.9 µg/mL
Stored at 21-25° C., 5 days
  Stability of Vitamin Es in AB Red: 11.9 µg/mL
Stored at 21-25° C., 8 days
  Stability of Vitamin Es in AB Red: 12.0 µg/mL
Stored at 21-25° C., 9 days
  Stability of Vitamin Es in AB Red: 11.7 µg/mL
Stored at 21-25° C., 10 days
  Stability of Vitamin Es in AB Red: 12.0 µg/mL
Stored at 21-25° C., 11 days
  Stability of Vitamin Es in AB Red: 12.0 µg/mL
Stored at 21-25° C., 12 days
  Stability of Vitamin Es in AB Red: 12.4 µg/mL
Stored at 21-25° C., 15 days
  Stability of Vitamin Es in AB Red: 11.6 µg/mL
Stored at 21-25° C., 16 days
  Stability of Vitamin Es in AB Red: 11.6 µg/mL
Stored at 21-25° C., 17 days
  Stability of Vitamin Es in AB Red: 12.6 µg/mL
Stored at 21-25° C., 18 days
  Stability of Vitamin Es in AB Red: 12.1 µg/mL
Stored at 21-25° C., 19 days
  Stability of Vitamin Es in AB Red: 11.9 µg/mL
Stored at 21-25° C., 22 days
  Stability of Vitamin Es in AB Red: 11.6 µg/mL
Stored at 21-25° C., 23 days
  Stability of Vitamin Es in AB Red: 12.7 µg/mL
Stored at 21-25° C., 24 days
  Stability of Vitamin Es in AB Red: 12.4 µg/mL
Stored at 21-25° C., 25 days
  Stability of Vitamin Es in AB Red: 11.9 µg/mL
Stored at 21-25° C., 26 days
  Stability of Vitamin Es in AB Red: 12.1 µg/mL
Stored at 21-25° C., 29 days
  Stability of Vitamin Es in AB Red: 12.4 µg/mL
Stored at 21-25° C., 30 days
  Stability of Vitamin Es in AB Red: 12.1 µg/mL
Stored at 21-25° C., 60 days
  Stability of Vitamin Es in AB Red: 11.7 µg/mL
Stored at 21-25° C., 90 days
  Stability of Vitamin Es in AB Red: 11.6 µg/mL
Stored at 21-25° C., 120 days
  Stability of Vitamin Es in AB Red: 11.5 µg/mL
Stored at 21-25° C., 150 days
  Stability of Vitamin Es in AB Red: 11.4 µg/mL
Stored at 21-25° C., 180 days
  Stability of Vitamin Es in AB Red: 12.3 µg/mL
Stored at 21-25° C., 210 days
  Stability of Vitamin Es in AB Red: 11.6 µg/mL
Stored at 21-25° C., 240 days
  Stability of Vitamin Es in AB Red: 11.6 µg/mL
Stored at 21-25° C., 270 days
  Stability of Vitamin Es in AB Red: 11.0 µg/mL
Stored at 21-25° C., 300 days
  Stability of Vitamin Es in AB Red: 11.4 µg/mL
Stored at 21-25° C., 330 days
  Stability of Vitamin Es in AB Red: 11.4 µg/mL
Stored at 21-25° C., 360 days
  Stability of Vitamin Es in AB Red: 11.1 µg/mL
Stored at 21-25° C., 390 days
  Stability of Vitamin Es in AB Red: 10.8 µg/mL
Stored at 21-25° C., 420 days
  Stability of Vitamin Es in AB Red: 11.0 µg/mL
Stored at 21-25° C., 450 days
  Stability of Vitamin Es in AB Red: 11.2 µg/mL
Stored at 21-25° C., 480 days
  Stability of Vitamin Es in AB Red: 10.4 µg/mL
Stored at 21-25° C., 510 days
  Stability of Vitamin Es in AB Red: 10.6 µg/mL
Stored at 21-25° C., 540 days
  Stability of Vitamin Es in AB Red: 10.3 µg/mL
Stored at 21-25° C., 570 days
  Stability of Vitamin Es in AB Red: 10.6 µg/mL
